Test results: article doi:10.1101/735001v1 (bioRxiv, 2019)
Where a SMILES comes first, the peptide text is derived from it. [ ]: non-standard residue; d: D form. Dmt = Cc1cc(O)cc(C)c1C[C@H](N)C(=O)O

Columns and labels:
[1] = Acrylamide dynamic quenching; type: physicochemical
[2] = test system: LUVs containing 20 mol% TOCL in POPC; test: Endogenous 2',6'-Dmt fluorescence measurement of SS-31 membrane binding; details: for increase in SS-31 emission intensity relative to emission in the absence of LUVs: 20% TOCL, mean (SD), n=6, SD; for n value ([L]eff:[P] at saturation) from time course titration inflection point: 20 mol% TOCL
[3] = test system: LUVs containing 20 mol% MLCL in POPC; test: as above; details: 20% MLCL, mean (SD), n=6
[4] = test system: LUVs containing 20 mol% POPG in POPC; test: as above; details: for increase in SS-31 emission intensity relative to emission in the absence of LUVs: 20% POPG, mean (SD), n=6, SD
LUVs with POPC only = test: as above; details: 100% POPC, high salt (100 mM KCl), 20 μM SS-31, [L]eff 100 µM, mean (SD), n=6
[5] = test system: LUVs containing 10 mol% TOCL; test: SS-31 titration time course binding saturation analysis; details: low salt
LUVs containing 20% TOCL = test: Acrylamide dynamic quenching; type: binding; details: 20 μM SS-31 with LUVs 20% TOCL, n=3
LUVs containing 20% MLCL = test: Acrylamide dynamic quenching; type: binding; details: 20 μM SS-31 with LUVs 20% MLCL, n=3
LUVs containing 20% POPG = test: Acrylamide dynamic quenching; type: binding; details: 20 μM SS-31 with LUVs 20% POPG, n=3
[6] = aqueous buffer, comparison of SS-31 with L-Tyr (Fig. S3C), n=3

Structure (SMILES)	Stern-Volmer constant KSV (acrylamide quenching) [1, 6]	increase in SS-31 emission intensity relative to emission in the absence of LUVs ([2]; high salt (100 mM KCl))	increase in SS-31 emission intensity relative to emission in the absence of LUVs ([2]; low salt, 20 μM SS-31, [L]eff 100 µM)	n value ([L]eff:[P] at saturation) from time course titration inflection point ([2]; high salt)	n value ([L]eff:[P] at saturation) from time course titration inflection point ([2]; low salt, SS-31 added in 2 µM increments, acrylamide in medium)	increase in SS-31 emission intensity relative to emission in the absence of LUVs ([3]; high salt (100 mM KCl))	increase in SS-31 emission intensity relative to emission in the absence of LUVs ([3]; low salt)	increase in SS-31 emission intensity relative to emission in the absence of LUVs ([4]; high salt (100 mM KCl))	increase in SS-31 emission intensity relative to emission in the absence of LUVs ([4]; low salt)	n value ([L]eff:[P] at saturation) from time course titration inflection point ([4]; 20 mol% POPG, low salt)	increase in SS-31 emission intensity relative to emission in the absence of LUVs (LUVs with POPC only)	n value ([L]eff:[P] at saturation) from time course titration inflection point [5]	Stern-Volmer constant KSV (acrylamide quenching) ([1]; 20 μM SS-31 in the absence of membranes, high salt (100 mM KCl))	Stern-Volmer constant KSV (acrylamide quenching) ([1]; 20 μM SS-31 in the absence of membranes, low salt)	Stern-Volmer constant KSV (acrylamide quenching) (LUVs containing 20% TOCL; high salt)	Stern-Volmer constant KSV (acrylamide quenching) (LUVs containing 20% TOCL; low salt)	Stern-Volmer constant KSV (acrylamide quenching) (LUVs containing 20% MLCL; high salt)	Stern-Volmer constant KSV (acrylamide quenching) (LUVs containing 20% MLCL; low salt)	Stern-Volmer constant KSV (acrylamide quenching) (LUVs containing 20% POPG; high salt)	Stern-Volmer constant KSV (acrylamide quenching) (LUVs containing 20% POPG; low salt)
N[C@@H](Cc1ccc(O)cc1)C(=O)O [L-Tyr, reference compound]	17.1 M⁻¹																			
Cc1cc(O)cc(C)c1C[C@H](NC(=O)[C@H](N)CCCNC(=N)N)C(=O)N[C@@H](CCCCN)C(=O)N[C@@H](Cc1ccccc1)C(N)=O [SS-31, D-Arg-2’6’-dimethylTyr-Lys-Phe-NH2] (H-[dR][Dmt]KF-NH2)	4.8 M⁻¹	1.72 (0.08)	2.33 (0.07)	~ 9	~ 5	1.79 (0.05)	2.48 (0.05)	1.45 (0.04)	2.16 (0.04)	~11	1.08 (0.04)	~ 12	5.4 M⁻¹	5.7 M⁻¹	1.20 M⁻¹	0.15 M⁻¹	1.04 M⁻¹	0.02 M⁻¹	2.19 M⁻¹	0.21 M⁻¹
